The results in this text go back to ChEMBL document CHEMBL1649228, “In vivo antibacterial activity of vertilmicin, a new aminoglycoside antibiotic” (2009).

For orientation: ED50 means the dose that gives a 50% effect, or the effect in half of the subjects. Low values mean greater potency, high ones weaker potency.

Structures are written as SMILES. Values after ≈ are worked out from the molar mass of the structure shown.

The first assay deals with Staphylococcus aureus. In words: Antimicrobial activity against methicillin-susceptible Staphylococcus aureus ATCC 29213 infected in CD-1 ICR mouse using 1.5 X 10^5 CFU inoculum. The class given is functional.
Details: not given
In turn, `CCN[C@@H]1C[C@H](N)[C@@H](O[C@H]2OC(CN)=CC[C@H]2N)[C@H](O)[C@H]1O[C@H]1OC[C@](C)(O)[C@H](NC)[C@H]1O` [NETILMICIN] gave an ED50 of 0.26 mg/kg.

The subject of another assay is Staphylococcus aureus. Put plainly: Antimicrobial activity against methicillin-susceptible Staphylococcus aureus 15 using 2.5 X 10^5 CFU inoculum by agar dilution method. The class given is functional.
Details: not given
On to `CCN[C@@H]1C[C@H](N)[C@@H](O[C@H]2OC(CN)=CC[C@H]2N)[C@H](O)[C@H]1O[C@H]1OC[C@](C)(O)[C@H](NC)[C@H]1O` [NETILMICIN], for which the MIC was 0.125 µg/mL (≈ 0.263 µM).

The next assay has as its system Enterococcus faecalis. In words: Antimicrobial activity against Enterococcus faecalis HH22 infected in CD-1 ICR mouse using 1.8 X 10^8 inoculum. The format is functional.
Details: not given
Molecule `CCN[C@@H]1C[C@H](N)[C@@H](O[C@H]2OC(CN)=CC[C@H]2N)[C@H](O)[C@H]1O[C@H]1OC[C@](C)(O)[C@H](NC)[C@H]1O` [NETILMICIN] showed an ED50 of 6.56 mg/kg.

The subject of the next assay is Staphylococcus aureus. Put plainly: Antimicrobial activity against methicillin-resistant Staphylococcus aureus 9344 using 2.5 X 10^5 CFU inoculum by agar dilution method. The class given is functional.
Details: not given
Background: In agar dilution the substance is mixed into plates at graded concentrations.
Molecule `CCN[C@@H]1C[C@H](N)[C@@H](O[C@H]2OC(CN)=CC[C@H]2N)[C@H](O)[C@H]1O[C@H]1OC[C@](C)(O)[C@H](NC)[C@H]1O` [NETILMICIN] displayed an MIC of 0.25 µg/mL (≈ 0.526 µM).

The next assay concerns Klebsiella pneumoniae. Put plainly: microbe, parasite or virus in culture. As to conditions: 935.
Description: Antimicrobial activity against Klebsiella pneumoniae 935 using 3 X 10^5 CFU inoculum by agar dilution method
`CCN[C@@H]1C[C@H](N)[C@@H](O[C@H]2OC(CN)=CC[C@H]2N)[C@H](O)[C@H]1O[C@H]1OC[C@](C)(O)[C@H](NC)[C@H]1O` [NETILMICIN] came in with an MIC of 0.5 µg/mL (≈ 1.05 µM).

A further assay relates to Escherichia coli. Put plainly: Antimicrobial activity against Escherichia coli 1515 infected in CD-1 ICR mouse using 2.4 X 10^6 CFU inoculum. The class given is functional.
Details: not given
With `CCN[C@@H]1C[C@H](N)[C@@H](O[C@H]2OC(CN)=CC[C@H]2N)[C@H](O)[C@H]1O[C@H]1OC[C@](C)(O)[C@H](NC)[C@H]1O` [NETILMICIN], the ED50 worked out at 0.46 mg/kg.

In another assay the test system is Escherichia coli. Put plainly: Antimicrobial activity against Escherichia coli 9612 infected in CD-1 ICR mouse using 3.7 X 10^4 CFU inoculum. The format is functional.
Details: not given
In turn, `CCN[C@@H]1C[C@H](N)[C@@H](O[C@H]2OC(CN)=CC[C@H]2N)[C@H](O)[C@H]1O[C@H]1OC[C@](C)(O)[C@H](NC)[C@H]1O` [NETILMICIN] had an ED50 of 0.63 mg/kg.

The test system of a further assay is Escherichia coli. Put plainly: microbe, parasite or virus in culture. As to conditions: ATCC 25922.
Description: Antimicrobial activity against Escherichia coli ATCC 25922 using 1 X 10^5 CFU inoculum by agar dilution method
Molecule `CCN[C@@H]1C[C@H](N)[C@@H](O[C@H]2OC(CN)=CC[C@H]2N)[C@H](O)[C@H]1O[C@H]1OC[C@](C)(O)[C@H](NC)[C@H]1O` [NETILMICIN] yielded an MIC of 0.5 µg/mL (≈ 1.05 µM).

A further assay deals with Staphylococcus aureus. Put plainly: Antimicrobial activity against methicillin-susceptible Staphylococcus aureus 15 infected in CD-1 ICR mouse using 2.5 X 10^5 CFU inoculum.
Details: not given
The class given is functional.
Molecule `CCN[C@@H]1C[C@H](N)[C@@H](O[C@H]2OC(CN)=CC[C@H]2N)[C@H](O)[C@H]1O[C@H]1OC[C@](C)(O)[C@H](NC)[C@H]1O` [NETILMICIN] registered an ED50 of 0.49 mg/kg.

Another assay deals with Staphylococcus aureus. Put plainly: Antimicrobial activity against methicillin-susceptible Staphylococcus aureus ATCC 29213 using 1.5 X 10^5 CFU inoculum by agar dilution method. The class given is functional.
Details: not given
With `CCN[C@@H]1C[C@H](N)[C@@H](O[C@H]2OC(CN)=CC[C@H]2N)[C@H](O)[C@H]1O[C@H]1OC[C@](C)(O)[C@H](NC)[C@H]1O` [NETILMICIN], the MIC amounted to 0.125 µg/mL (≈ 0.263 µM).

Another assay has as its system Enterococcus faecalis. Put plainly: Antimicrobial activity against Enterococcus faecalis ATCC 29212 infected in CD-1 ICR mouse using 2.8 X 10^7 inoculum. The class given is functional.
Details: not given
Consider `CCN[C@@H]1C[C@H](N)[C@@H](O[C@H]2OC(CN)=CC[C@H]2N)[C@H](O)[C@H]1O[C@H]1OC[C@](C)(O)[C@H](NC)[C@H]1O` [NETILMICIN], for which the ED50 is 3.44 mg/kg.

In the next assay the test system is Klebsiella pneumoniae. In words: microbe, parasite or virus in culture. The following applies: 967.
Description: Antimicrobial activity against Klebsiella pneumoniae 967 using 2.6 X 10^5 CFU inoculum by agar dilution method
On to `CCN[C@@H]1C[C@H](N)[C@@H](O[C@H]2OC(CN)=CC[C@H]2N)[C@H](O)[C@H]1O[C@H]1OC[C@](C)(O)[C@H](NC)[C@H]1O` [NETILMICIN], for which the MIC worked out at 0.5 µg/mL (≈ 1.05 µM).

A further assay relates to Staphylococcus aureus. Put plainly: Antimicrobial activity against methicillin-resistant Staphylococcus aureus 9344 infected in CD-1 ICR mouse using 2.5 X 10^5 CFU inoculum. The format is functional.
Details: not given
`CCN[C@@H]1C[C@H](N)[C@@H](O[C@H]2OC(CN)=CC[C@H]2N)[C@H](O)[C@H]1O[C@H]1OC[C@](C)(O)[C@H](NC)[C@H]1O` [NETILMICIN] showed an ED50 of 0.88 mg/kg.

The test system of the next assay is Enterococcus faecalis. Put plainly: Antimicrobial activity against Enterococcus faecalis ATCC 29212 using 2.8 X 10^7 by agar dilution method.
Details: not given
The class given is functional.
In turn, `CCN[C@@H]1C[C@H](N)[C@@H](O[C@H]2OC(CN)=CC[C@H]2N)[C@H](O)[C@H]1O[C@H]1OC[C@](C)(O)[C@H](NC)[C@H]1O` [NETILMICIN] came in with an MIC of 8 µg/mL (≈ 16.8 µM).

The test system of another assay is Escherichia coli. Put plainly: Antimicrobial activity against Escherichia coli 9612 using 3.7 X 10^4 CFU inoculum by agar dilution method. The format is functional.
Details: not given
Consider `CCN[C@@H]1C[C@H](N)[C@@H](O[C@H]2OC(CN)=CC[C@H]2N)[C@H](O)[C@H]1O[C@H]1OC[C@](C)(O)[C@H](NC)[C@H]1O` [NETILMICIN], for which the MIC was 0.5 µg/mL (≈ 1.05 µM).

Another assay has as its system Klebsiella pneumoniae. In words: Antimicrobial activity against Klebsiella pneumoniae 967 infected in CD-1 ICR mouse using 2.6 X 10^5 CFU inoculum. The format is functional.
Details: not given
On to `CCN[C@@H]1C[C@H](N)[C@@H](O[C@H]2OC(CN)=CC[C@H]2N)[C@H](O)[C@H]1O[C@H]1OC[C@](C)(O)[C@H](NC)[C@H]1O` [NETILMICIN], for which the 50% effect level (ED50) was put at a dose of 0.17 mg/kg.

The next assay concerns Klebsiella pneumoniae. In words: Antimicrobial activity against Klebsiella pneumoniae 935 infected in CD-1 ICR mouse using 3 X 10^5 CFU inoculum. The format is functional.
Details: not given
Turning to `CCN[C@@H]1C[C@H](N)[C@@H](O[C@H]2OC(CN)=CC[C@H]2N)[C@H](O)[C@H]1O[C@H]1OC[C@](C)(O)[C@H](NC)[C@H]1O` [NETILMICIN], the ED50 worked out at 0.33 mg/kg.

The test system of the next assay is Escherichia coli. In words: Antimicrobial activity against Escherichia coli ATCC 25922 infected in CD-1 ICR mouse using 1 X 10^5 CFU inoculum.
Details: not given
The class given is functional.
Molecule `CCN[C@@H]1C[C@H](N)[C@@H](O[C@H]2OC(CN)=CC[C@H]2N)[C@H](O)[C@H]1O[C@H]1OC[C@](C)(O)[C@H](NC)[C@H]1O` [NETILMICIN] showed an ED50 of 0.77 mg/kg.

A further assay concerns Enterococcus faecalis. Put plainly: Antimicrobial activity against Enterococcus faecalis HH22 using 1.8 X 10^8 by agar dilution method. The format is functional.
Details: not given
As to `CCN[C@@H]1C[C@H](N)[C@@H](O[C@H]2OC(CN)=CC[C@H]2N)[C@H](O)[C@H]1O[C@H]1OC[C@](C)(O)[C@H](NC)[C@H]1O` [NETILMICIN], the MIC came to 8 µg/mL (≈ 16.8 µM).

Another assay deals with Escherichia coli. In words: microbe, parasite or virus in culture. As to conditions: 1515.
Description: Antimicrobial activity against Escherichia coli 1515 using 2.4 X 10^6 CFU inoculum by agar dilution method
As to `CCN[C@@H]1C[C@H](N)[C@@H](O[C@H]2OC(CN)=CC[C@H]2N)[C@H](O)[C@H]1O[C@H]1OC[C@](C)(O)[C@H](NC)[C@H]1O` [NETILMICIN], the MIC stood at 0.5 µg/mL (≈ 1.05 µM).
